The nature of data set [1]: Cytotoxicity against C57BL/6 mouse BV-2 cells assessed as survival rate at 20 uM incubated for 24 hrs by MTT assay relative to control. The conditions noted are these: read-out: INH. The data set is classed as toxicity, cell-based.
The test system of data set [2] is BV-2. The data set is described as follows: Anti-neuroinflammatory activity against LPS-stimulated C57BL/6 mouse BV-2 cells assessed as inhibition of NO release at 20 uM preincubated with compound for 4 hrs followed by LPS addition and measured after 24 hrs by Griess reagent based assay relative to control. In kind it is functional. Conditions: C57BL/6, BV-2, time 28 hrs.

Data set [3] in a line: Cytotoxicity against C57BL/6 mouse BV-2 cells assessed as survival rate at 10 uM incubated for 24 hrs by MTT assay relative to control. The data set is classed as toxicity, cell-based. Conditions: read-out: Survival.
Data set [4] concerns BV-2. Nature of the data set: Anti-neuroinflammatory activity against LPS-stimulated C57BL/6 mouse BV-2 cells assessed as inhibition of NO release at 10 uM preincubated with compound for 4 hrs followed by LPS addition and measured after 24 hrs by Griess reagent based assay relative to control. Conditions: C57BL/6, BV-2, time 28 hrs. The data set is classed as functional.
Data set [5] can be described thus: Cytotoxicity against C57BL/6 mouse BV-2 cells assessed as survival rate at 30 uM incubated for 24 hrs by MTT assay relative to control. In kind it is toxicity, cell-based. Conditions: read-out: Survival.
The test system of data set [6] is BV-2. Nature of the data set: Anti-neuroinflammatory activity against LPS-stimulated C57BL/6 mouse BV-2 cells assessed as inhibition of NO release at 30 uM preincubated with compound for 4 hrs followed by LPS addition and measured after 24 hrs by Griess reagent based assay relative to control. The conditions noted are these: C57BL/6, BV-2, time 28 hrs. In kind it is functional.

Data set [7] relates to BV-2. Nature of the data set: Anti-neuroinflammatory activity against LPS-stimulated C57BL/6 mouse BV-2 cells assessed as inhibition of NO release preincubated with compound for 4 hrs followed by LPS addition and measured after 24 hrs by Griess reagent based assay. The data set is classed as functional, cell-based. The conditions noted are these: C57BL/6, BV-2.

The source of these data is ChEMBL document CHEMBL6078668, “Synthesis and biological evaluation of lappaconitine analogues as potential anti-neuroinflammatory agents by side chain modification and scaffold hopping strategy” (Bioorg Med Chem, 2025).

For the compound `CCN1C[C@]2(COC)CC[C@H](OC)[C@]34C1[C@@H](C[C@H]23)[C@@]1(O)C[C@H](OC)[C@H]2C[C@@H]4[C@]1(O)[C@H]2OC(=O)c1ccccc1NS(=O)(=O)c1cccc(F)c1`, the viability at 24 h, 20 µM in data set [1] turned out to be 100%. Further, the inhibition at 20 µM in data set [2] worked out at 18.5%.
In the same order, the values of `CCc1ccc(C(=O)Nc2ccccc2C(=O)OC[C@@]23CC[C@H](OC)[C@]45C([C@@H](C[C@H]24)[C@@]2(O)C[C@H](OC)[C@H]4C[C@@H]5[C@]2(O)[C@H]4OC)N(CC)C3)cc1` are 102% and 21.7%.
Turning to `CCN1C[C@]2(COC)CC[C@H](OC)[C@]34C1[C@@H](C[C@H]23)[C@@]1(O)C[C@H](OC)[C@H]2C[C@@H]4[C@]1(O)[C@H]2OC(=O)c1ccccc1NC(=O)c1ccc(Cl)s1`, the viability at 24 h, 10 µM in data set [3] stood at 97.8%. The inhibition at 10 µM in data set [4] turned out to be 22.2%.
`CCc1ccc(C(=O)Nc2ccccc2C(=O)O[C@H]2[C@@H]3C[C@H]4[C@@]56C7[C@@H](C[C@@H]5[C@@](COC)(CC[C@@H]6OC)CN7CC)[C@@](O)(C[C@@H]3OC)[C@@]24O)cc1`: the viability at 24 h, 10 µM in data set [3] was determined as 1.2%.
As to `CCN1C[C@]2(OC(=O)c3ccccc3NC(=O)S(=O)(=O)c3c(Cl)sc4ccccc34)CC[C@H](OC)[C@]34C1[C@@H](C[C@H]23)[C@@]1(O)C[C@H](OC)[C@H]2C[C@@H]4[C@]1(O)[C@H]2OC`, the viability at 24 h, 10 µM in data set [3] was 98.5%. Also, in data set [4], the inhibition at 10 µM was found to be 26.4%.
For `CCN1C[C@]2(COC)CC[C@H](OC)[C@]34C1[C@@H](C[C@H]23)[C@@]1(O)C[C@H](OC)[C@H]2C[C@@H]4[C@]1(O)[C@H]2OC(=O)c1ccccc1NS(=O)(=O)c1ccc(Br)s1`, the viability at 24 h, 20 µM in data set [1] stood at 110%. Moreover, the inhibition at 20 µM in data set [2] worked out at 32.8%.
On to `CCN1C[C@]2(OC(=O)c3ccccc3NC(=O)S(=O)(=O)c3ccccc3F)CC[C@H](OC)[C@]34C1[C@@H](C[C@H]23)[C@@]1(O)C[C@H](OC)[C@H]2C[C@@H]4[C@]1(O)[C@H]2OC`, for which, in data set [5], the viability at 24 h, 30 µM was found to be 106%. Also, the inhibition at 30 µM in data set [6] was 68%. Also, the IC50 in data set [7] came to 18.9 µM.
As for `CCN1C[C@]2(COC(=O)c3ccccc3NC(=O)c3ccc(Cl)s3)CC[C@H](OC)[C@]34C1[C@@H](C[C@H]23)[C@@]1(O)C[C@H](OC)[C@H]2C[C@@H]4[C@]1(O)[C@H]2O`, the viability at 24 h, 20 µM in data set [1] was 104%. In addition, the inhibition at 20 µM in data set [2] was 45.3%.
Consider `CCc1ccc(C(=O)Nc2ccccc2C(=O)O[C@@]23CC[C@H](OC)[C@]45C([C@@H](C[C@H]24)[C@@]2(O)C[C@H](OC)[C@H]4C[C@@H]5[C@]2(O)[C@H]4OC)N(CC)C3)cc1`, for which, in data set [5], the viability at 24 h, 30 µM amounted to 107%. For the same compound, the inhibition at 30 µM in data set [6] worked out at 83.9%. For the same compound, the IC50 in data set [7] is 10.4 µM.
On the same counts, the results for `CCN1C[C@]2(OC(=O)c3ccccc3NC(=O)c3ccc(Cl)s3)CC[C@H](OC)[C@]34C1[C@@H](C[C@H]23)[C@@]1(O)C[C@H](OC)[C@H]2C[C@@H]4[C@]1(O)[C@H]2OC` are 108%, 82.1% and 11.3 µM.
With `CCN1C[C@]2(COC(=O)c3ccccc3NC(=O)c3ccc(Cl)s3)CC[C@H](OC)[C@]34C1[C@@H](C[C@H]23)[C@@]1(O)C[C@H](OC)[C@H]2C[C@@H]4[C@]1(O)[C@H]2OC`, the viability at 24 h, 10 µM in data set [3] amounted to 105%. In data set [4], the inhibition at 10 µM came out at 13.5%.
As for `CCN1C[C@]2(OC(=O)c3ccccc3NC(=O)c3ccc(N(C)C)cc3)CC[C@H](OC)[C@]34C1[C@@H](C[C@H]23)[C@@]1(O)C[C@H](OC)[C@H]2C[C@@H]4[C@]1(O)[C@H]2OC`, the viability at 24 h, 30 µM in data set [5] is 101%. The inhibition at 30 µM in data set [6] turned out to be 62.4%. In addition, in data set [7], the IC50 worked out at 23.6 µM.
With `CCN1C[C@]2(OC(=O)c3ccccc3NC(=O)S(=O)(=O)c3c(C)c(C)c4c(c3C)CC(C)(C)O4)CC[C@H](OC)[C@]34C1[C@@H](C[C@H]23)[C@@]1(O)C[C@H](OC)[C@H]2C[C@@H]4[C@]1(O)[C@H]2OC`, the viability at 24 h, 10 µM in data set [3] was 95.8%. The inhibition at 10 µM in data set [4] was found to be 17.5%.
Turning to `CCCOc1ccccc1C(=O)Nc1ccccc1C(=O)O[C@@]12CC[C@H](OC)[C@]34C([C@@H](C[C@H]13)[C@@]1(O)C[C@H](OC)[C@H]3C[C@@H]4[C@]1(O)[C@H]3OC)N(CC)C2`, the viability at 24 h, 30 µM in data set [5] turned out to be 106%. For the same compound, the inhibition at 30 µM in data set [6] was determined as 78.5%. For the same compound, the 50% inhibitory concentration (IC50) in data set [7] is 11.8 µM.
Regarding `CCN1C[C@]2(OC(=O)c3ccccc3NC(=O)S(=O)(=O)c3cc(F)cc(F)c3)CC[C@H](OC)[C@]34C1[C@@H](C[C@H]23)[C@@]1(O)C[C@H](OC)[C@H]2C[C@@H]4[C@]1(O)[C@H]2OC`, in data set [5], the viability at 24 h, 30 µM worked out at 102%. In addition, the inhibition at 30 µM in data set [6] was 64.1%. Besides, in data set [7], the IC50 is 20.4 µM.
